Experiment [1] concerns the target T1, Beta-galactosidase (Bos taurus) (UniProt Q58D55).
T1 sequence (whole entry): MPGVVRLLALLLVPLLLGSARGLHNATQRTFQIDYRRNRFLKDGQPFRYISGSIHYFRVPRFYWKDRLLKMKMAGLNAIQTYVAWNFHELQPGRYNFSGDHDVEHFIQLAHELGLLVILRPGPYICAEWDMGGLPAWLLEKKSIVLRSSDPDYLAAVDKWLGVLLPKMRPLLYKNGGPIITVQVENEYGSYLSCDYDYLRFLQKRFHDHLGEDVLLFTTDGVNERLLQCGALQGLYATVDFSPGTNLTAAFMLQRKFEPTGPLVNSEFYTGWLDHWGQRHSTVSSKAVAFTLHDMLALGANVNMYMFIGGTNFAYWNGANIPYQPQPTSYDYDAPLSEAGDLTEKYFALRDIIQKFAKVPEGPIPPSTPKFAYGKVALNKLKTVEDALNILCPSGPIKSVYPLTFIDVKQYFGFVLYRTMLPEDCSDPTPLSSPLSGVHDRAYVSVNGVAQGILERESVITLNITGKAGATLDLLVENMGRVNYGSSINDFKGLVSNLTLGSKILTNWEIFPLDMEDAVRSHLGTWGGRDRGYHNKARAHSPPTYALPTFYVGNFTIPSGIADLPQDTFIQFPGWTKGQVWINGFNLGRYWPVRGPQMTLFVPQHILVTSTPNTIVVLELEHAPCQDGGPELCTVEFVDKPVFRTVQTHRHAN
In words: Inhibition of bovine liver beta-galactosidase at 0.1 mM using p-nitrophenyl glycopyranoside as substrate preincubated for 5 mins followed by substrate addition and measured after 20 mins by visible absorption spectroscopic analysis.

The next experiment deals with Canavalia ensiformis. Briefly: Inhibition of jack beans beta-N-acetylglucosaminidase at 0.1 mM using p-nitrophenyl glycopyranoside as substrate preincubated for 5 mins followed by substrate addition and measured after 20 mins by visible absorption spectroscopic analysis.
Experiment [2] is described as follows: Uncompetitive inhibition of bovine kidney alpha-fucosidase using p-nitrophenyl glycopyranoside as substrate preincubated for 5 mins followed by substrate addition and measured after 20 mins by Cornish-Bowden plot analysis. On the set-up: species or system Bos taurus.
A further experiment has as its system Aspergillus niger. Briefly: Inhibition of Aspergillus niger amyloglucosidase at 0.1 mM using p-nitrophenyl glycopyranoside as substrate preincubated for 5 mins followed by substrate addition and measured after 20 mins by visible absorption spectroscopic analysis.
Another experiment deals with Prunus dulcis. In words: Inhibition of almond beta-glucosidase at 0.1 mM using p-nitrophenyl glycopyranoside as substrate preincubated for 5 mins followed by substrate addition and measured after 20 mins by visible absorption spectroscopic analysis.
Experiment [3] is described as follows: Competitive inhibition of human alpha-fucosidase using p-nitrophenyl glycopyranoside as substrate preincubated for 5 mins followed by substrate addition and measured after 20 mins by Dixon plot analysis.
The nature of experiment [4]: Inhibition of human alpha-fucosidase using p-nitrophenyl glycopyranoside as substrate preincubated for 5 mins followed by substrate addition and measured after 20 mins by visible absorption spectroscopic analysis.
In experiment [5] the target is T2, Alpha-mannosidase (Canavalia ensiformis) (UniProt C0HJB3).
T2 sequence (whole entry): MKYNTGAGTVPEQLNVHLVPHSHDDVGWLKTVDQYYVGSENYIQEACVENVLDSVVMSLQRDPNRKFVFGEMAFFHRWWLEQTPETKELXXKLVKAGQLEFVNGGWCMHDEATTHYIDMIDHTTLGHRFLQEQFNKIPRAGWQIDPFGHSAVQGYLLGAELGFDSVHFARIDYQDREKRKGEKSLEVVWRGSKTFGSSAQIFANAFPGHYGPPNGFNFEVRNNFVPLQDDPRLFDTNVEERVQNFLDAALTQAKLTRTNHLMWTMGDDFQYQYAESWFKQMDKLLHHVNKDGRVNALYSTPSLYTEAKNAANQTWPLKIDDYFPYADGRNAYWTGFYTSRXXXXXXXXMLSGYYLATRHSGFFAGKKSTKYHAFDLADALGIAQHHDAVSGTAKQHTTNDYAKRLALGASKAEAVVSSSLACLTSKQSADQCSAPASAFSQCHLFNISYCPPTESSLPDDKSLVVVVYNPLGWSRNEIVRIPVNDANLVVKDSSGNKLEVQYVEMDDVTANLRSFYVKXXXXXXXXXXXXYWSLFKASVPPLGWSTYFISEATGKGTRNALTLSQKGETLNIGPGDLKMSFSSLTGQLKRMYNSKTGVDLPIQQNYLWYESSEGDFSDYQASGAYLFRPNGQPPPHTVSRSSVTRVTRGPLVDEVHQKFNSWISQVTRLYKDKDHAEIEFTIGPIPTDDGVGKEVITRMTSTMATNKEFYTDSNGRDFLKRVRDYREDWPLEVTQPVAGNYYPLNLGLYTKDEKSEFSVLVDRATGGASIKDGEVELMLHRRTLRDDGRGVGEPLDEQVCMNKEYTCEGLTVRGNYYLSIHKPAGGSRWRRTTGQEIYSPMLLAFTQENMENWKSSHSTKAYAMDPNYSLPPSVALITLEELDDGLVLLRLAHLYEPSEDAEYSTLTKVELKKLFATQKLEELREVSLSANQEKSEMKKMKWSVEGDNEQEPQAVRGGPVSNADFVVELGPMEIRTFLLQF
In words: Inhibition of jack beans alpha-mannosidase at 0.1 mM using p-nitrophenyl glycopyranoside as substrate preincubated for 5 mins followed by substrate addition and measured after 20 mins by visible absorption spectroscopic analysis.

The species entered for experiment [6] is Bos taurus. In words: Inhibition of bovine kidney alpha-fucosidase at 0.120 uM using p-nitrophenyl glycopyranoside as substrate preincubated for 5 mins followed by substrate addition and measured after 20 mins by visible absorption spectroscopic analysis.
Experiment [7] addresses Alpha-galactosidase (Coffea arabica) (UniProt Q42656). In words: Inhibition of coffee beans alpha-galactosidase at 0.1 mM using p-nitrophenyl glycopyranoside as substrate preincubated for 5 mins followed by substrate addition and measured after 20 mins by visible absorption spectroscopic analysis.
Experiment [8] is filed under the species Bos taurus. Briefly: Inhibition of bovine kidney alpha-fucosidase at 0.120 uM using p-nitrophenyl glycopyranoside as substrate preincubated for 5 mins followed by substrate addition and measured after 20 mins by visible absorption spectroscopic analysis relative to control.
Experiment [9] is filed under the species Bos taurus. Briefly: Inhibition of bovine kidney alpha-fucosidase at 5 uM using p-nitrophenyl glycopyranoside as substrate preincubated for 5 mins followed by substrate addition and measured after 20 mins by visible absorption spectroscopic analysis relative to control.
A short description of experiment [10]: Inhibition of bovine kidney alpha-fucosidase using p-nitrophenyl glycopyranoside as substrate preincubated for 5 mins followed by substrate addition and measured after 20 mins by visible absorption spectroscopic analysis. The arrangement: species or system Bos taurus.
Experiment [11] in a line: Uncompetitive inhibition of human alpha-fucosidase using p-nitrophenyl glycopyranoside as substrate preincubated for 5 mins followed by substrate addition and measured after 20 mins by Cornish-Bowden plot analysis.
The nature of experiment [12]: Competitive inhibition of bovine kidney alpha-fucosidase using p-nitrophenyl glycopyranoside as substrate preincubated for 5 mins followed by substrate addition and measured after 20 mins by Dixon plot analysis. On the set-up: species or system Bos taurus.
For a further experiment, the system named is Saccharomyces cerevisiae. In words: Inhibition of Saccharomyces cerevisiae alpha-glucosidase at 0.1 mM using p-nitrophenyl glycopyranoside as substrate preincubated for 5 mins followed by substrate addition and measured after 20 mins by visible absorption spectroscopic analysis.
In the next experiment the test system is Oryza sativa. In words: Inhibition of rice beta-glucosidase at 0.1 mM using p-nitrophenyl glycopyranoside as substrate preincubated for 5 mins followed by substrate addition and measured after 20 mins by visible absorption spectroscopic analysis.
A further experiment has as its system Cornu aspersum. In words: Inhibition of snail beta-mannosidase at 0.1 mM using p-nitrophenyl glycopyranoside as substrate preincubated for 5 mins followed by substrate addition and measured after 20 mins by visible absorption spectroscopic analysis.
For the next experiment, the species on record is Homo sapiens. Briefly: Inhibition of human alpha-fucosidase at 0.1 mM using p-nitrophenyl glycopyranoside as substrate preincubated for 5 mins followed by substrate addition and measured after 20 mins by visible absorption spectroscopic analysis.
The target of experiment [13] is T3, Beta-galactosidase (Bos taurus, UniProt Q58D55).
T3 sequence (Q58D55 whole entry): T1 sequence (whole entry)
Briefly: Inhibition of bovine liver beta-galactosidase using p-nitrophenyl glycopyranoside as substrate preincubated for 5 mins followed by substrate addition and measured after 20 mins by visible absorption spectroscopic analysis.

Experiment [14] deals with T3, Beta-galactosidase. In words: Competitive inhibition of bovine liver beta-galactosidase using p-nitrophenyl glycopyranoside as substrate preincubated for 5 mins followed by substrate addition and measured after 20 mins by Lineweaver-Burk plot analysis.
Experiment [15] is described as follows: (§1) Inhibition of bovine kidney alpha-fucosidase at 0.1 mM using p-nitrophenyl glycopyranoside as substrate preincubated for 5 mins followed by substrate addition and measured after 20 mins by visible absorption spectroscopic analysis relative to control. The arrangement: species or system Bos taurus.
For experiment [16], the species on record is Bos taurus. Described as §1.
In experiment [17] the target is T1, Beta-galactosidase (Bos taurus). Briefly: Inhibition of bovine liver beta-galactosidase at 200 uM using p-nitrophenyl glycopyranoside as substrate preincubated for 5 mins followed by substrate addition and measured after 20 mins by visible absorption spectroscopic analysis relative to control.

Calls of active or inactive are those of the source. The rule behind the calls is not given here.

Chain of Alpha-galactosidase (Coffea arabica) (Q42656 16-378 limits assumed): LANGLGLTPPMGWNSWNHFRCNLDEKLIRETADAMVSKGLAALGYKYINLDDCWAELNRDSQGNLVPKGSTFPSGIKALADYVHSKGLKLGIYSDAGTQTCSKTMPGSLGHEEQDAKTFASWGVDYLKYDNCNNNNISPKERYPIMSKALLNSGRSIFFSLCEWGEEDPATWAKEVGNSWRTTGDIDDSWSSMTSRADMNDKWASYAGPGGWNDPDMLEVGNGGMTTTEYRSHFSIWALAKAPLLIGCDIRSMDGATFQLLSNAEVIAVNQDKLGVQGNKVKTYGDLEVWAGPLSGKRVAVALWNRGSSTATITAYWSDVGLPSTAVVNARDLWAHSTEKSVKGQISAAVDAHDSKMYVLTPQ

On to `C[C@@H]1N[C@@H](c2cn(-c3ccc(S(=O)(=O)c4ccc(-n5cc([C@@H]6N[C@@H](C)[C@@H](O)[C@H]6O)nn5)cc4)cc3)nn2)[C@H](O)[C@@H]1O`, for which the inhibition entry (in [1]; in the experiment with Canavalia ensiformis; with Aspergillus niger; with Prunus dulcis; in [5]; in experiment [7]) was “inactive” in each case. In addition, the inhibition result with Saccharomyces cerevisiae, in the experiment with Oryza sativa and in the experiment with Cornu aspersum was “inactive” throughout. The Ki was determined as 0.00052 µM in [2], 0.06 µM in experiment [3], 0.15 µM in experiment [11] and 0.00015 µM in [12]. Also, the half-inhibitory concentration (IC50) came to 0.21 µM in experiment [4] and 0.00048 µM in experiment [10]. The inhibition entry in the experiment listed under Bos taurus [6] is “Active”. The inhibition in the experiment filed under Bos taurus [8] was found to be 96%; in the experiment listed under Bos taurus [9] it was 91%.

Consider `CCCCCCn1cc(CNC(=O)c2cc([C@H]3NC[C@@H](O)[C@H]3O)oc2C)nn1`, for which the inhibition entry (in the experiment with Canavalia ensiformis; in the experiment on Aspergillus niger; with Prunus dulcis; in the experiment filed under Homo sapiens; in experiment [5]; in [7]) was “inactive” in each case. Also, the inhibition result with Saccharomyces cerevisiae, in the experiment on Oryza sativa and in the experiment on Cornu aspersum was “inactive” in each case. Further, the IC50 was determined as 94 µM on Beta-galactosidase [13] and 37 µM in [15]. This molecule showed an inhibitory constant (Ki) at Beta-galactosidase [14] of 58 µM.

On to `Cc1oc([C@H]2NC[C@@H](O)[C@H]2O)cc1C(=O)NCc1cn(CCCCCCCCCCCCn2cc(CNC(=O)c3cc([C@H]4NC[C@@H](O)[C@H]4O)oc3C)nn2)nn1`, for which the inhibition result (with Canavalia ensiformis; with Aspergillus niger; in the experiment on Prunus dulcis; in the experiment filed under Homo sapiens; in experiment [5]; in experiment [7]) was “inactive” in each case. Further, the inhibition result with Saccharomyces cerevisiae, with Oryza sativa and in the experiment on Cornu aspersum was “inactive” each time. This molecule yielded an IC50 against Beta-galactosidase [13] of 9.6 µM. Besides, the affinity at Beta-galactosidase [14] corresponds to a Ki of 5.8 µM. For the same molecule, the results for the inhibition (in the experiment listed under Bos taurus [16]; in experiment [17]) were 32% and 88%, respectively.

By inhibition is commonly meant the drop in the measured response relative to a control, in per cent. For orientation: Ki means the equilibrium dissociation constant of an inhibitor or competing ligand from its target. A higher Ki goes with weaker binding. Broadly, the IC50 is the concentration at which inhibition is half-maximal. A low value points to greater potency.

Source of the values: ChEMBL document CHEMBL4270512, “Harnessing pyrrolidine iminosugars into dimeric structures for the rapid discovery of divalent glycosidase inhibitors” (Eur J Med Chem, 2018).
